Reference: patent US20230381170A1, “METHOD FOR TREATING ALS/FTD THROUGH DEGRADATION OF RNA REPEAT EXPANSION” (University of Florida Research Foundation, Incorporated, priority 2020, published 2023)

Tests used:
[1] = test system: r(G4C2)8; assay: In vitro Chem-CLIP and C-Chem-CLIP; assay type: binding; settings: constant 4 (500 nM), increasing concentrations of competitor
Description: In vitro Chemical Cross-linking and Isolation by Pull-Down (Chem-CLIP) and Competitive Chemical Cross-linking and Isolation by Pull-Down (C-Chem-CLIP): Approximately 10,000 counts of ^32P 5′-end labeled r(G4C2)8 was folded in 1×Folding Buffer at 95° C. for 1 min. After cooling to room temperature, the Chem-CLIP probe at the desired concentrations (5, 10, 100, 500, 1000, 5000, 10000 nM) was added, and the samples were incubated at 37° C. for 18 h. For C-Chem-CLIP studies, the parent compound (10, 100, 500, 1000, 5000, 10000 nM) was incubated with RNA for 1 h before addition of the Chem-CLIP probe (500 nM).
Cross-linked RNAs were clicked to biotin […] azide (10 μL of a 5 mM stock solution in DMSO) by incubating in a solution containing 25 mM HEPES (pH 7.1), 250 mM sodium ascorbate, 10 mM CuSO4, and 50 mM THPTA (tris-hydroxypropyltriazolylmethylamine) for 6 h at 37° C. A 300 μL of streptavidin-agarose beads (Sigma-Aldrich) was washed three times and then resuspended in 1×PBS. An aliquot (20 μL) of the slurry was added to each sample, which was incubated for 1 h at room temperature. The samples were centrifuged and the supernatant containing unbound RNA was transferred to an unused tube. The beads were then washed three times with 1×PBS supplemented with 0.10% (v/v) Tween-20 and centrifuged, with each wash supernatant being added to the tube containing unbound RNA. The amounts of radioactivity in the supernatant and associated with the beads were quantified with a Beckman Coulter LS6500 Liquid Scintillation Counter.

[2] = test system: r(G4C2)exp-containing nuclear foci; assay: RNA foci imaging (RNA-FISH) in patient-derived LCLs; assay type: cell-based, human; settings: 100 nM
Description: Imaging RNA Foci in LCLs. RNA foci containing r(G4C2)^exp were imaged using RNA fluorescence in situ hybridization (FISH) as previously described (13). Briefly, ALS patient-derived LCLs were treated with compound or ASO as described in “Measuring poly(GP) Levels by Electrochemiluminescence”. The cells were harvested, pelleted, and washed with 1×PBS. LCLs were then fixed in 2% paraformaldehyde in 1×PBS for 15 min at room temperature and then washed three times with 1×PBS. The fixed cells were then centrifuged, washed twice with 1×PBS, and seeded into poly lysine coated, glass bottom 96-well plates (˜5×10^5 cells/well). To ensure the cells adhered to the plate, they were incubated at 37° C. for >2 h. The cells were then incubated with 70% ethanol overnight at 37° C. The next day, LCLs were washed with 1×PBS for 15 min at room temperature, and then with 1×PBS containing 0.1% (v/v) Triton X-100 for 5 min at room temperature. […] Quantification was performed in triplicate with ˜200 nuclei counted per sample. Average number of foci per nuclei was assessed for each sample and reported. Statistical analysis was measured using an unpaired t-test with Welch's correction.

[3] = test system: transcriptome of iPSCs derived from healthy donors; assay: RNA-seq in iPSCs from healthy donors; assay type: cell-based, human; settings: 50 nM
[4] = test system: Poly(GP), Poly(GA), TDP-43 inclusions; assay: Immunohistochemistry of sagittal brain sections of +/+PWR500 mice; assay type: in vivo, mouse; settings: cortex
Description: Therapeutic Efficacy in a c9ALS/FD mouse model. All animal studies were completed as approved by the Scripps Florida Institutional Animal Care and Use Committee. A total of 24 mice (12+/+PWR500 [7 Male and 5 Female] and 12 WT [6 Male and 6 Female]) mice, age- and gender-matched and ranging in age from 18-22 weeks old were used in therapeutic efficacy studies (Table 6). Mice were anesthetized by intraperitoneal (i.p.) injection of 10 mg/mL Ketamine:1 mg/mL Xylazine solution. Intracerebroventricular (ICV) stereotactic injections of 10 μL of 7 (33 nmol) were administered into the right ventricle using the following coordinates: 0.2 mm posterior and 1.0 mm lateral to the right from the bregma and 3 mm deep. Mice were treated with 7 or vehicle consisting of 1% DMSO in Saline. Three weeks post-treatment, mice were euthanized, and tissue was harvested for study.
Immunohistochemistry. Tissue was excised postmortem, and brain tissue was sliced at the midline. The right hemisphere was stored in 10% neutral buffered formalin for 48 h. Tissue processing, embedding and sectioning were carried out by the Scripps Florida's Histology Core. Formalin-fixed tissue was placed on a paraffin processor (Sakura Tissue-Tek VIPS), embedded in paraffin, sectioned a 4 μm, and mounted on plus slides. The slides were optimized with the appropriate primary antibody dilutions (see below) on the Leica BOND-MAX platform followed by the Leica Refine Detection Kit containing the secondary polymer, DAB chromagen and counterstain. After dehydration in graded alcohols and cleared in xylene, the slides were cover slipped with a permanent mounting medium, Cytoseal 60 (Thermo Scientific). Images were taken in the right hemisphere of the cortex due north of the hippocampus with 5 images were taken per slice. Average number of aggregates or inclusions per cell was assessed for each sample and reported. Statistical analysis was measured using an unpaired t-test with Welch's correction. Immunohistochemical staining and analyses were completed blinded.

[5] = test system: C9orf72 intron 1; assay: C9orf72 intron 1 RT-qPCR in iPSC lines from healthy donors; assay type: cell-based, human
Description: iPSCs were treated for 4 days in Matrigel (356234, Corning) coated plates with mTeSR™1 feeder-free medium ([…] Technologies; Catalog #85850). Cells were treated in 6-well plates on day 1 and 3 with compounds diluted in 0.1% final DMSO.
Measuring Levels of C9orf72 and C9orf72 Variants by RT-qPCR. LCLs were seeded in 6-well plate (˜10^6 cells in 2 mL of growth medium) and incubated overnight at 37° C. Cells were then treated with various concentrations of compound for 24 h or with G4C2-ASO and Control-ASO (100 nM), delivered by transfection with Lipofectamine RNAiMax. RNA was extracted as described above and the expression of C9orf72 variants was determined by RT-qPCR. For iPSC and iPSC-derived motor neuron cell line, the cells were seeded into Matrigel-coated 6-well plate to ˜60% confluence before treated with 3 μM C9orf72-ASO or Control-ASO and various concentrations of compound for 1 to 2 weeks. For compound treatment well, medium change was performed with fresh compound every 3-4 days. RNA was extracted as described above and the expression of C9orf72 variants was determined by RT-qPCR.

| Compound | C-Chem-CLIP, RNA pulled down by 4 [1] | reduction of number of r(G4C2)exp-containing nuclear foci [2] [%] | changes in the transcriptome [3] | Poly(GA) aggregates ([4]; compared to vehicle) | Poly(GP) aggregates ([4]; compared to vehicle) | TDP-43 inclusions ([4]; relative to vehicle) | C9orf72 intron 1 levels [5] |
| --- | --- | --- | --- | --- | --- | --- | --- |
| Cc1c2ccncc2c(C)c2c1[nH]c1ccc(OCCOCCOCCNCCOCCOCCOc3ccc4[nH]c5c(C)c6ccncc6c(C)c5c4c3)cc12 [Compound 3] | reduced the percentage of RNA pulled down in a dose dependent fashion | ~60 | – | – | – | – | – |
| CCOC(=O)C1=C(Nc2ccccc2)S/C(=C\c2ccc(OCCOCCOCCOCCNC(=O)CCC(=O)N(CCOCCOCCOc3ccc4[nH]c5c(C)c6ccncc6c(C)c5c4c3)CCOCCOCCOc3ccc4[nH]c5c(C)c6ccncc6c(C)c5c4c3)c(O)c2)C1=O [Compound 7] | – | – | no changes | significant decrease | significant decrease | decreased | no effect |
